Laboratory results reported in patent US9254261B2, “Stable quick dissolving dosage form comprising amoxicillin and clavulanic acid” (Sandoz AG, priority 2014, dated 2016).

Assay: Stability of potassium clavulanate alone and in binary mixtures with excipients, stressed storage 7 days at 60° C.
Assay type: physicochemical
Settings: after storage 7 days at 60° C.; control sample, no excipient
Experimental: In particular, the effect of different excipients and different mixture preparation conditions on the stability of the active ingredients was analyzed. […] In addition, two sets of compatibility studies with various excipients were conducted to investigate the influence of excipients on the stability of clavulanic acid and amoxicillin in the final dosage form. In the first study, a total of eight binary (i.e. two component) mixtures were prepared, each combining: […] (a) silicified microcrystalline cellulose, (b) low moisture silicified microcrystalline cellulose, having a moisture content of less than about 3.0%, (c) crospovidone, or (d) mannitol. […] After storage at a temperature of about 60° C. for about 7 days, each of the mixtures was then assayed to determine the amount of active ingredient remaining. Similarly, in the second study, a total of eight binary mixtures were prepared, each combining: […] (a) silicified microcrystalline cellulose, (b) low moisture silicified microcrystalline cellulose, (c) crospovidone, or (d) colloidal silicon dioxide. […] Further, each of the binary mixtures in the second study was prepared in a reduced moisture environment at a normal relative humidity (RH) of less than 30%. After storage at a temperature of about 60° C. for about 7 days, each of the mixtures was then assayed to determine the amount of active ingredient remaining.

## O=C(O)[C@H]1/C(=C/CO)O[C@@H]2CC(=O)N21 [Clavulanic acid (CA), potassium clavulanate]
  Assay of clavulanic acid (%): 94%
